The values below come from a melting point compilation (Tetko et al.; mined from patent text by program, amines drawn as free bases though some values may be those of a salt).

For the molecule `COc1cc(C(=O)NCc2ccc(-c3csc(N)n3)s2)cc(OC)c1OC`, the melting point was found to be 217 °C. As to `O=C1CSC2CN=C(c3ccccc3)c3cc(Cl)ccc3N12` (stereo not given), the melting point was 228 to 230 °C.

The molecule `NS(=O)c1ccccc1` (stereo not given) displayed a melting point of 112 to 115 °C.

For the molecule `CC(C)(CCNS(=O)(=O)c1ccc(Cl)cc1)CC(=O)O`, the melting point lay within 107 to 108 °C.

In turn, `N[C@@H](Cc1ccccc1)C(=O)N(CC1CC(Br)=NO1)C(=O)OCc1ccccc1` (stereo not given in full) registered a melting point of 122 to 125 °C.

With `O=C(O)/C=C(/c1ccccc1)c1ccc2ccccc2c1`, the melting point lay within 170 to 172 °C. In turn, `COc1cc2c(c3c1OC(C)(C)C3)C(c1ccccc1)=NC(C)(C)C2` had a melting point of 128 to 129 °C. Regarding `CCCCOC(=O)CN(C(=O)C(F)(F)F)C(N1CCOCC1)P(=O)(O)OSc1ccc(Cl)cc1` (stereo not given), the melting point lay in the range of 79.5 to 81 °C. `CCCCCCN(C[C@H]1CCC[C@H](CN(CCCCCC)C(=O)Nc2ccc(N(C)C)cc2)C1)C(=O)Nc1ccc(N(C)C)cc1` (relative stereo) displayed a melting point of 121 to 125 °C. `CCOC(=O)c1ccc(N=C(Nc2ccc(C(=O)OCC)cc2)c2ccc(OC)cc2)cc1` yielded a melting point of 145 to 146 °C. The result for `COc1cc(C2CCN(CC(N)=O)CC2)ccc1Nc1ncc2ccc(-c3ccccc3OC)n2n1` reads 88 to 95 °C. The result for `CCN(CC)C(=O)C(C)Oc1cc(-c2ccccc2)cc2ccccc12` (stereo not given) reads 109 °C; that for `C=Cc1ccc(CSCCNC(=O)COCC(=O)O)cc1`, 44.5 to 46 °C; that for `CCOP(=O)(Cc1cc(Cl)c(O)c(C(C)(C)C)c1)OCC`, 116 °C. The result for `N#Cc1cc([N+](=O)[O-])ccc1N1CCCCC1` reads 75 °C; that for `CCOC(=O)C1CSCCN1C(=O)Nc1ccc(Cl)cc1F` (stereo not given), 112 °C; that for `CCc1cn(C(C)(C)C(=O)N(C)C)nc1-c1ccccc1Cl`, 102 to 104 °C. `O=C1CCCN1Nc1ccncc1`: the melting point was 177 to 180 °C. The molecule `CC(C)CNc1ccc(Cl)cc1C(O)c1ccccc1OCc1ccccc1` (stereo not given) yielded a melting point of 79 to 80 °C. The result for `Cc1c(C(=O)Nc2ccc(N3CCC(N4CCOCC4)CC3)cc2C#N)cnn1-c1ccc(Cl)cc1` reads 212 to 213 °C. Under `COCc1ccc2c(c1S(N)(=O)=O)S(=O)(=O)C(C)C2` (stereo not given) stands 115 °C; under `CC(=O)Nc1ccc2c(c1)CC(N(C)C)C2` (stereo not given), 94 to 96 °C. Molecule `COC(=O)C1(Cl)CC1C(=O)O` (stereo not given) came in with a melting point of 77.7 to 79.1 °C. The result for `COc1ccc2c(=O)c(C=O)coc2c1OC(C)=O` reads 160 to 161 °C.

On to `COc1ccc2c(c1)Sc1c(cc(OC)c(OC)c1Br)N2C`, for which the melting point fell in the range of 135 to 137 °C. With `CCN(c1ccc(C#N)cc1Cl)S(=O)(=O)c1ccc(C)cc1`, the melting point was in the range of 112 to 114 °C.

On to `COc1cc2c(c(OC)c1OC)C(C)(C)CC(C=O)=C2`, for which the melting point was in the range of 178 to 180 °C. Molecule `CC1(C)CC=Nc2nc(N)c3ccccc3c21` came in with a melting point of 253 to 260 °C. Regarding `Cc1c(C(=O)Nc2ccc(N3CCC(NCCO)CC3)c(C#N)c2)cnn1-c1ccc(C(F)(F)F)cc1`, the melting point worked out at 202 °C. `COc1ccc2ccc(N3C(=O)c4ccccc4C3OC(=O)Oc3ccccc3)nc2n1` (stereo not given) yielded a melting point of 145 °C. Regarding `CCC(Oc1cccc(C(F)F)c1Cl)C1=NCCN1` (stereo not given), the melting point lay in the range of 96 to 97 °C.

For `CC(C)N(C(=O)CN1C(=O)C(C)(CC(=O)Nc2ccccc2)C(=O)N(c2ccc(Cl)cc2)c2ccccc21)c1ccccc1` (stereo not given), the melting point fell in the range of 170 to 176 °C. In turn, `O=C1CC(Br)(CC(Br)(Br)Br)O1` (stereo not given) returned a melting point of 71 to 73 °C. Under `O=C(O)c1ccccc1SSc1ccc([N+](=O)[O-])cc1C(Cl)(Cl)Cl` stands 224 °C; under `COc1cc(COc2nn(-c3ccccc3)cc2C#N)ccc1OCc1nc(-c2ccco2)oc1C`, 167 to 168 °C.

As a reminder, the melting point is the temperature of the solid-liquid transition.
